The source of these data is the Kinase Knowledgebase extract (Sharma et al. 2016).

Each structure is given as a SMILES string.

This experiment has as its target CDK2 (human) (UniProt P24941). The experiment is described as follows: Enzyme Assay.

`Cc1[nH]nc2c1N=C(c1ccccc1Cl)c1cc([N+](=O)[O-])ccc1N2` yielded a 50% inhibitory concentration (IC50) of 0.01 to 0.99 µM.

In turn, `Cc1[nH]nc2c1N=C(c1ccccc1Cl)c1cc(NS(=O)(=O)N3CCOCC3)ccc1N2` displayed a half-inhibitory concentration (IC50) of 0.01 to 0.99 µM.

As for `O=[N+]([O-])c1ccc2c(c1)C(c1ccccc1Cl)=Nc1c(n[nH]c1-c1ccc(OC(F)(F)F)cc1)N2`, the IC50 lay in the range of 0.01 to 0.99 µM.

With `Cc1[nH]nc2c1N=C(c1ccccc1F)c1cc(C#N)ccc1N2`, the half-inhibitory concentration (IC50) lay in the range of 0.01 to 0.99 µM.

`Clc1ccccc1C1=Nc2c[nH]nc2Nc2ccccc21` registered a half-maximal inhibitory concentration (IC50) of 0.01 to 0.99 µM.

`O=[N+]([O-])c1ccc2c(c1)C(c1ccccc1Cl)=Nc1c(n[nH]c1C1CC1)N2` registered an IC50 of 0.01 to 0.99 µM.

Take `O=[N+]([O-])c1ccc2c(c1)C(c1ccccc1Cl)=Nc1c(n[nH]c1-c1ccccc1S)N2`: the IC50 was in the range of 0.01 to 0.99 µM.

`NC(=O)c1ccc2c(c1)C(c1ccccc1F)=Nc1c[nH]nc1N2` displayed an IC50 of 0.01 to 0.99 µM.

Turning to `CCc1[nH]nc2c1N=C(c1ccccc1Cl)c1cc([N+](=O)[O-])ccc1N2`, the IC50 was in the range of 0.01 to 0.99 µM.

On to `O=[N+]([O-])c1cccc(-c2[nH]nc3c2N=C(c2ccccc2Cl)c2cc([N+](=O)[O-])ccc2N3)c1`, for which the IC50 fell in the range of 0.01 to 0.99 µM.

For `Cc1[nH]nc2c1N=C(c1ccccc1F)c1cc(C(=O)NCCO)ccc1N2`, the IC50 is 0.01 to 0.99 µM.

`Cc1[nH]nc2c1N=C(c1ccccc1Cl)c1cc(NS(C)(=O)=O)ccc1N2` had a 50% inhibitory concentration (IC50) of 0.01 to 0.99 µM.

Compound `O=[N+]([O-])c1ccc2c(c1)C(c1ccccc1F)=Nc1c[nH]nc1N2` yielded a 50% inhibitory concentration (IC50) of 0.01 to 0.99 µM.

Compound `Cc1[nH]nc2c1N=C(c1ccccc1F)c1cc(Cl)ccc1N2` registered an IC50 of 0.01 to 0.99 µM.

`O=[N+]([O-])c1ccc2c(c1)C(c1ccccc1C(F)(F)F)=Nc1c[nH]nc1N2` returned an IC50 of 0.01 to 0.99 µM.

On to `Cc1[nH]nc2c1N=C(c1ccccc1)c1cc([N+](=O)[O-])ccc1N2`, for which the IC50 is 0.01 to 0.99 µM.

`Cc1[nH]nc2c1N=C(c1ccccc1Cl)c1cc(Cl)ccc1N2` yielded an IC50 of 0.01 to 0.99 µM.

For the compound `Cc1[nH]nc2c1N=C(c1ccccc1F)c1cc(I)ccc1N2`, the IC50 was 0.01 to 0.99 µM.

Take `O=[N+]([O-])c1ccc2c(c1)C(c1ccccc1Cl)=Nc1c(n[nH]c1-c1cccc(S)c1)N2`: the IC50 was in the range of 0.01 to 0.99 µM.

`N#Cc1ccc2c(c1)C(c1ccccc1F)=Nc1c[nH]nc1N2` came in with an IC50 of 0.01 to 0.99 µM.

With `O=[N+]([O-])c1ccc2c(c1)C(c1ccccc1)=Nc1c(n[nH]c1C1CC1)N2`, the IC50 lay within 0.01 to 0.99 µM.

In turn, `Cc1[nH]nc2c1N=C(c1ccccc1)c1cc(Cl)ccc1N2` gave a half-inhibitory concentration (IC50) of 0.01 to 0.99 µM.

As to `COc1cc(O)ccc1-c1[nH]nc2c1N=C(c1ccccc1Cl)c1cc([N+](=O)[O-])ccc1N2`, the IC50 was in the range of 0.01 to 0.99 µM.

In turn, `NNC(=O)c1[nH]nc2c1N=C(c1ccccc1Cl)c1cc([N+](=O)[O-])ccc1N2` returned a concentration for half-maximal inhibition (IC50) of 0.01 to 0.99 µM.

As to `Cc1[nH]nc2c1N=C(c1ccccc1)c1ccccc1N2`, the IC50 was 0.01 to 0.99 µM.

The compound `O=[N+]([O-])c1ccc2c(c1)C(c1ccccc1Cl)=Nc1c(n[nH]c1-c1nccs1)N2` displayed an IC50 of 0.01 to 0.99 µM.

In turn, `O=[N+]([O-])c1ccc2c(c1)C(c1ccccc1Cl)=Nc1c[nH]nc1N2` displayed an IC50 of 0.01 to 0.99 µM.

With `O=C(c1ccc2c(c1)C(c1ccccc1F)=Nc1c[nH]nc1N2)N1CCOCC1`, the half-maximal inhibitory concentration (IC50) fell in the range of 0.01 to 0.99 µM.

Consider `Cc1[nH]nc2c1N=C(c1ccccc1C(F)(F)F)c1cc([N+](=O)[O-])ccc1N2`, for which the IC50 lay in the range of 0.01 to 0.99 µM.

In turn, `C=Cc1[nH]nc2c1N=C(c1ccccc1Cl)c1cc([N+](=O)[O-])ccc1N2` displayed an IC50 of 0.01 to 0.99 µM.

`O=[N+]([O-])c1ccc2c(c1)C(c1ccccc1Cl)=Nc1c(n[nH]c1-c1cccc3c1OCO3)N2` came in with an IC50 of 0.01 to 0.99 µM.

In the case of `N#Cc1[nH]nc2c1N=C(c1ccccc1Cl)c1cc([N+](=O)[O-])ccc1N2`, the IC50 fell in the range of 0.01 to 0.99 µM.

In turn, `Cc1[nH]nc2c1N=C(c1ccccc1F)c1cc(F)ccc1N2` returned an IC50 of 0.01 to 0.99 µM.

In the case of `Cc1[nH]nc2c1N=C(c1ccccc1Cl)c1cc(NS(=O)(=O)NCCl)ccc1N2`, the IC50 was in the range of 0.01 to 0.99 µM.

As for `Cc1[nH]nc2c1N=C(c1ccccc1Cl)c1ccccc1N2`, the IC50 is 0.01 to 0.99 µM.

`CCOC(=O)c1ccc2c(c1)C(c1ccccc1F)=Nc1c[nH]nc1N2` had an IC50 of 0.01 to 0.99 µM.

Consider `COCc1[nH]nc2c1N=C(c1ccccc1Cl)c1cc([N+](=O)[O-])ccc1N2`, for which the IC50 was 0.01 to 0.99 µM.

On to `O=Cc1[nH]nc2c1N=C(c1ccccc1Cl)c1cc([N+](=O)[O-])ccc1N2`, for which the half-maximal inhibitory concentration (IC50) lay in the range of 0.01 to 0.99 µM.

`Cc1[nH]nc2c1N=C(c1ccccc1Cl)c1cc(NS(=O)(=O)N(C)C)ccc1N2` yielded an IC50 of 0.01 to 0.99 µM.

As for `Cc1[nH]nc2c1N=C(c1ccccc1F)c1ccccc1N2`, the IC50 lay within 0.01 to 0.99 µM.

In the case of `O=[N+]([O-])c1ccc2c(c1)C(c1ccccc1Cl)=Nc1c(n[nH]c1-c1ccc[nH]1)N2`, the IC50 was in the range of 0.01 to 0.99 µM.

Compound `O=[N+]([O-])c1ccc2c(c1)C(c1ccccc1Cl)=Nc1c(n[nH]c1C(F)(F)F)N2` registered an IC50 of 0.01 to 0.99 µM.

In turn, `Cc1cccc(S)c1-c1[nH]nc2c1N=C(c1ccccc1Cl)c1cc([N+](=O)[O-])ccc1N2` had a concentration for half-maximal inhibition (IC50) of 0.01 to 0.99 µM.

Regarding `N#Cc1ccc2c(c1)C(c1ccccc1F)=Nc1c(n[nH]c1CO)N2`, the concentration for half-maximal inhibition (IC50) lay within 0.01 to 0.99 µM.

For `O=[N+]([O-])c1ccc2c(c1)C(c1ccccc1Cl)=Nc1c(n[nH]c1-c1ccco1)N2`, the 50% inhibitory concentration (IC50) fell in the range of 0.01 to 0.99 µM.

Compound `O=[N+]([O-])c1ccc2c(c1)C(c1ccccc1Cl)=Nc1c(n[nH]c1-c1ccncc1)N2` returned an IC50 of 0.01 to 0.99 µM.

With `O=[N+]([O-])c1cccc(C2=Nc3c[nH]nc3Nc3ccc([N+](=O)[O-])cc32)c1`, the IC50 is 0.01 to 0.99 µM.

`CCOC(=O)c1ccc2c(c1)C(c1ccccc1F)=Nc1c(n[nH]c1C)N2` displayed an IC50 of 0.01 to 0.99 µM.

In the case of `Cc1[nH]nc2c1N=C(c1ccccc1F)c1cc(C(=O)N3CCOCC3)ccc1N2`, the half-maximal inhibitory concentration (IC50) fell in the range of 0.01 to 0.99 µM.

On to `Cc1[nH]nc2c1N=C(c1ccccc1)c1cc(F)ccc1N2`, for which the concentration for half-maximal inhibition (IC50) lay in the range of 0.01 to 0.99 µM.

Regarding `O=[N+]([O-])c1ccc2c(c1)C(c1ccccc1Cl)=Nc1c(n[nH]c1-c1cc[nH]n1)N2`, the IC50 fell in the range of 0.01 to 0.99 µM.

`O=C(NCCO)c1ccc2c(c1)C(c1ccccc1F)=Nc1c[nH]nc1N2`: the IC50 was 0.01 to 0.99 µM.

With `Cc1[nH]nc2c1N=C(c1ccccc1F)c1cc([N+](=O)[O-])ccc1N2`, the 50% inhibitory concentration (IC50) was in the range of 0.01 to 0.99 µM.

Consider `CSc1ccc(-c2[nH]nc3c2N=C(c2ccccc2Cl)c2cc([N+](=O)[O-])ccc2N3)cc1`, for which the concentration for half-maximal inhibition (IC50) lay in the range of 0.01 to 0.99 µM.

For the compound `O=[N+]([O-])c1ccc2c(c1)C(c1ccccc1Cl)=Nc1c(n[nH]c1CO)N2`, the IC50 was 0.01 to 0.99 µM.

Take `NC(=O)c1[nH]nc2c1N=C(c1ccccc1Cl)c1cc([N+](=O)[O-])ccc1N2`: the 50% inhibitory concentration (IC50) was 0.01 to 0.99 µM.

The compound `C=CC(=O)Nc1ccc2c(c1)C(c1ccccc1Cl)=Nc1c(n[nH]c1C)N2` gave a half-inhibitory concentration (IC50) of 0.01 to 0.99 µM.

Compound `O=[N+]([O-])c1ccc2c(c1)C(c1ccccc1Cl)=Nc1c(n[nH]c1-n1cccn1)N2` had a concentration for half-maximal inhibition (IC50) of 0.01 to 0.99 µM.

Consider `Cc1[nH]nc2c1N=C(c1ccccc1Cl)c1cc(N)ccc1N2`, for which the half-inhibitory concentration (IC50) lay within 0.01 to 0.99 µM.

As for `CC(C)c1[nH]nc2c1N=C(c1ccccc1Cl)c1cc([N+](=O)[O-])ccc1N2`, the IC50 lay within 0.01 to 0.99 µM.

The compound `COc1ccc2c(c1)C(c1ccccc1Cl)=Nc1c(n[nH]c1C)N2` yielded a half-inhibitory concentration (IC50) of 0.01 to 0.99 µM.

Consider `O=[N+]([O-])c1ccc2c(c1)C(c1ccccc1Cl)=Nc1c(n[nH]c1-c1cccnc1)N2`, for which the 50% inhibitory concentration (IC50) was in the range of 0.01 to 0.99 µM.

Compound `CC(C)c1[nH]nc2c1N=C(c1ccccc1Cl)c1cc(N)ccc1N2` returned an IC50 of 0.01 to 0.99 µM.

`Cc1[nH]nc2c1N=C(c1ccccc1F)c1cc(C(N)=O)ccc1N2` gave an IC50 of 0.01 to 0.99 µM.

Compound `O=[N+]([O-])c1ccc2c(c1)C(c1ccccc1Cl)=Nc1c(n[nH]c1-c1c[nH]cn1)N2` gave an IC50 of 0.01 to 0.99 µM.

In turn, `Cc1cn[nH]c1-c1[nH]nc2c1N=C(c1ccccc1Cl)c1cc([N+](=O)[O-])ccc1N2` gave an IC50 of 0.01 to 0.99 µM.

In turn, `O=[N+]([O-])c1ccc2c(c1)C(c1ccccc1Cl)=Nc1c(n[nH]c1-c1ccccc1)N2` gave an IC50 of 0.01 to 0.99 µM.

In turn, `CCCc1[nH]nc2c1N=C(c1ccccc1Cl)c1cc([N+](=O)[O-])ccc1N2` registered a 50% inhibitory concentration (IC50) of 0.01 to 0.99 µM.

For the compound `O=[N+]([O-])c1ccc2c(c1)C(c1ccccc1)=Nc1c[nH]nc1N2`, the IC50 is 0.01 to 0.99 µM.

`CC(=O)Nc1ccc2c(c1)C(c1ccccc1Cl)=Nc1c(n[nH]c1C)N2` returned an IC50 of 0.01 to 0.99 µM.

In turn, `O=[N+]([O-])c1ccc2c(c1)C(c1ccccc1Cl)=Nc1c(n[nH]c1-c1ccc(-c3ccccc3)cc1)N2` came in with a half-maximal inhibitory concentration (IC50) of 0.01 to 0.99 µM.

The compound `CCC(C)c1[nH]nc2c1N=C(c1ccccc1Cl)c1cc([N+](=O)[O-])ccc1N2` (stereo not drawn) registered an IC50 of 0.01 to 0.99 µM.

With `Cc1[nH]nc2c1N=C(c1ccccc1F)c1cc(C(=O)NCCN3CCOCC3)ccc1N2`, the IC50 was 0.01 to 0.99 µM.
